Test results published in patent US10632137B2, “Composition containing ivermectin for exterminating Clavinema mariae infection on Sebastes schlegeli” (REPUBLIC OF KOREA (National Institute of Fisheries Science), priority 2017, dated 2020).
“Also recorded” adds a separate entry of the source.

Key:
Sebastes schlegeli [1] = test: Mortality (death of fish) of treated Sebastes schlegeli
From the text: For the oral administration, a predetermined amount of each candidate material was mixed with blended powder feed to prepare a feed pellet, the Sebastes schlegeli was anesthetized, and the feed pellet was inserted up to the stomach with tweezers (FIG. 2). […] After 2 weeks, all experimental fishes were anesthetized with MS-222, and Clavinema mariae was extracted with tweezers to confirm the death. The control group was anesthetized, and then only feed pill to which the drug is not added was orally administered thereto.
For this purpose, 10 Sebastes schlegeli infected with Clavinema mariae were divided for each experimental group, and when two weeks passed after the Ivermectin was administered a total of 1 to 4 times daily or every 2 to 4 days while changing an oral administration concentration from 1 to 18 ppm, the antiparasitic effect and the mortality of the Clavinema mariae were observed.

Clavinema mariae [2] = test: In vivo killing (antiparasitic) effect in Sebastes schlegeli naturally infected with Clavinema mariae
Experimental: 500 Sebastes schlegeli (116±17 g, 20±9 cm) on the west coast region of Korea were purchased and were allowed to habituate at a water temperature of 18.5 to 21° C. in a sea water tank for one week. Since the Sebastes schlegeli infected with Clavinema mariae is able to be confirmed by visual inspection, the Sebastes schlegeli was anesthetized with MS-222, and only the Sebastes schlegeli infected with Clavinema mariae was screened by visual inspection and used for clinical examination.

Clavinema mariae [3] = test: organism not typed; conditions: for Viability of Clavinema mariae (Dead %/Survived): after 1 hour; for Killing Concentration (ppm): in vitro, Clavinema mariae in PBS, 1 hour; for Antiparasitic effect of Clavinema mariae in vitro compared with the recommended concentration: in vitro killing concentration versus recommended concentration of Table 3
From the text: Candidate materials of a medicine for exterminating Clavinema mariae infection on Sebastes schlegeli were screened by examining various documents (Table 1). […] From the Sebastes schlegeli naturally infected with Clavinema mariae, the Clavinema mariae was carefully removed with tweezers, preserved in PBS, and directly exposed to nine candidate materials at various concentrations to evaluate the antiparasitic effect. […] However, after being killed, the movement disappears, and thus whether it is dead or not is able to be easily determined by observing whether it moves or not. Among the nine candidate materials, Febendazole, Pyrantel, Levamisole, Piperazine, Ivermectin, Trichlorfon, and Praziqantel were purchased from Sigma Aldrich (USA), and hydrogen peroxide and formalin solution were purchased from Junsei (Japan). Among the candidate materials, a poorly soluble compound, Febendazole, was dissolved in 100% ethanol and diluted with PBS to be used. Piperazine and Ivermectin were dissolved in dimethylsulfoxide (DMSO) and diluted with PBS to be used.
Clavinema mariae was extracted from Sebastes schlegeli (average weight: 150 g) cultivated on the west coast of Cheonsu Bay area (FIG. 1), 2 ml of each candidate material diluted with PBS to have each concentration was dispensed into a 6-well plate. Ten (10) living Clavinema mariae were placed in each well, and viability thereof was confirmed after 1 hour (FIG. 2).

Sebastes schlegeli [4] = test: Histological analysis (H&E) of internal organs after Ivermectin oral administration; format: in vivo; conditions: for hepatocyte (liver histology): oral, 4 times, one week after last administration
Experimental: Ivermectin was orally administered to Sebastes schlegeli according to dosing concentrations, dosing times, and dosing intervals described in Table 6, and after one week from the last oral administration, histological analysis of internal organs was performed. The histological analysis was performed by fixing the liver, kidney, spleen and gill of the experimental fish with 10% neutral formalin, followed by dehydration and paraffin embedding, and the cut tissues were stained with hematoxylin-eosin (H & E) and examined. As a result of histopathological examination, the spleen, kidney, and gill except the liver were normal in all tissues as compared with the control group. […] Therefore, it was confirmed that administration of 1 ppm of Ivermectin 4 times daily or every 2 to 3 days or administration of 2 ppm of Ivermectin every 2 to 3 days was the most preferable administration method in view of stability.

[5] = humans, after oral administration; cited from earlier work
[6] = oral, 5 ppm, 1 administration, after 2 weeks
[7] = 1 h, read-out: Viability of Clavinema mariae (Dead %/Survived)
[8] = medicated bath, 50 ppm, 10 minutes, 1 bath, observed for 2 weeks
[9] = at the concentrations shown in Table 4, once, after 2 weeks
[10] = medicated bath, 50 ppm, 10 minutes, 1 bath, after 2 weeks

COC(=O)Nc1nc2ccc(Sc3ccccc3)cc2[nH]1 [Fenbendazole]
Death of fish (%) (Sebastes schlegeli [1]; oral, 5 ppm, 1 administration, observed for 2 weeks): 0% | Death of fish (%) (Sebastes schlegeli [1]; oral, 15 ppm, 1 administration, observed for 2 weeks): 0% | Killing Effect (%) (Clavinema mariae [2]; [6]): 0% | Killing Effect (%) (Clavinema mariae [2]; oral, 15 ppm, 1 administration, after 2 weeks): 0% | Viability of Clavinema mariae (Dead %/Survived) (Clavinema mariae [3]; 1.7 ppm in PBS): Survived | Viability of Clavinema mariae (Dead %/Survived) (Clavinema mariae [3]; 5 ppm in PBS): Survived | mortality at 15 ppm (Clavinema mariae [3]; [7]): 100% | mortality at 30 ppm (Clavinema mariae [3]; [7]): 100% | Killing Concentration (ppm) (Clavinema mariae [3]): 5-15 ppm

Ivermectin
Histopathological examination of spleen, kidney and gill (Sebastes schlegeli [4]; all regimens of Table 6, compared with the control group): normal | hepatocyte (liver histology) (Sebastes schlegeli [4]; 1 ppm, 2-3 days): Abnormality of the liver tissue was not confirmed; also recorded: Normal | hepatocyte (liver histology) (Sebastes schlegeli [4]; 1 ppm, everyday): Abnormality of the liver tissue was not confirmed; also recorded: Normal | hepatocyte (liver histology) (Sebastes schlegeli [4]; 2 ppm, 2-3 days): Abnormality of the liver tissue was not confirmed; also recorded: Normal | hepatocyte (liver histology) (Sebastes schlegeli [4]; 2 ppm, everyday): hepatocyte metamorphosis, vacuolar formation | Death of fish (%) (Sebastes schlegeli [1]; oral, 1 ppm, 1 administration, observed for 2 weeks): 0% | Death of fish (%) (Sebastes schlegeli [1]; oral, 1 ppm, 4 times, everyday): 0% | Death of fish (%) (Sebastes schlegeli [1]; oral, 1 ppm, 4 times, intervals 2-3 days): 0% | Behaviour and death of Sebastes schlegeli (Sebastes schlegeli [1]; oral, 2 ppm, 4 times): some Sebastes schlegeli were sitting on the bottom and died | Death of fish (%) (Sebastes schlegeli [1]; oral, 2 ppm, 4 times, everyday): 20% | Death of fish (%) (Sebastes schlegeli [1]; oral, 2 ppm, 4 times, intervals 2-3 days): 0% | Death of Sebastes schlegeli (Sebastes schlegeli [1]; oral, 3 ppm or more): death occurred after being administered 2 times | Death of fish (%) (Sebastes schlegeli [1]; oral, 3 ppm, 2 times, everyday): 60% | Death of fish (%) (Sebastes schlegeli [1]; oral, 3 ppm, 2 times, interval 3 days): 20% | Death of fish (%) (Sebastes schlegeli [1]; oral, 4 ppm, 2 times, everyday): 60% | Death of fish (%) (Sebastes schlegeli [1]; oral, 5 ppm, 2 times, everyday): 30% | Death of fish (%) (Sebastes schlegeli [1]; oral, 6 ppm, 2 times, interval 4 days): 70% | Death of fish (%) (Sebastes schlegeli [1]; oral, 18 ppm, 1 time): 100% | Time until the spot where the pus is formed disappeared and was completely cured (Clavinema mariae [2]; oral, 1 ppm once): ≤ 6 weeks | Antiparasitic effect against Clavinema mariae on Sebastes schlegeli (Clavinema mariae [2]; oral, 1 ppm once, after two weeks): some individuals had pus in a spot infected with the Clavinema mariae, and showed the antiparasitic effect | Killing Effect (%) (Clavinema mariae [2]; oral, 1 ppm, 1 administration, after 2 weeks): 20% | Killing Effect (%) (Clavinema mariae [2]; oral, 1 ppm, 4 times, everyday, after two weeks): 100% | Killing Effect (%) (Clavinema mariae [2]; oral, 1 ppm, 4 times, intervals 2-3 days, after two weeks): 100% | Nematode antiparasitic effect (Clavinema mariae [2]; oral, 1 to 2 ppm, 4 times): 100% | State of the infection area after 6 weeks (Clavinema mariae [2]; oral, 1 to 2 ppm, 4 times, after 6 weeks): the infection area was cleanly treated | Killing Effect (%) (Clavinema mariae [2]; oral, 2 ppm, 4 times, everyday, after two weeks): 100% | Killing Effect (%) (Clavinema mariae [2]; oral, 2 ppm, 4 times, intervals 2-3 days, after two weeks): 100% | Killing Effect (%) (Clavinema mariae [2]; oral, 3 ppm, 2 times, everyday, after two weeks): 100% | Killing Effect (%) (Clavinema mariae [2]; oral, 3 ppm, 2 times, interval 3 days, after two weeks): 100% | Killing Effect (%) (Clavinema mariae [2]; oral, 4 ppm, 2 times, everyday, after two weeks): 100% | Killing Effect (%) (Clavinema mariae [2]; oral, 5 ppm, 2 times, everyday, after two weeks): 100% | Killing Effect (%) (Clavinema mariae [2]; oral, 6 ppm, 2 times, interval 4 days, after two weeks): 100% | Viability of Clavinema mariae (Dead %/Survived) (Clavinema mariae [3]; 0.001 ppm in PBS): Survived | Viability of Clavinema mariae (Dead %/Survived) (Clavinema mariae [3]; 0.01 ppm in PBS): Dead (100%) | Viability of Clavinema mariae (Dead %/Survived) (Clavinema mariae [3]; 0.05 ppm in PBS): Dead (100%) | Viability of Clavinema mariae (Dead %/Survived) (Clavinema mariae [3]; 0.5 ppm in PBS): Dead (100%) | Antiparasitic effect of Clavinema mariae in vitro compared with the recommended concentration (Clavinema mariae [3]): at a lower concentration than the recommended concentration | Killing Concentration (ppm) (Clavinema mariae [3]): 0.001-0.01 ppm

COP(=O)(OC)C(O)C(Cl)(Cl)Cl (stereo not shown) [Trichlorfon]
Viability of Clavinema mariae (Dead %/Survived) (Clavinema mariae [3]; 2.5 ppm in PBS): Survived | Viability of Clavinema mariae (Dead %/Survived) (Clavinema mariae [3]; 25 ppm in PBS): Survived | mortality at 50 ppm (Clavinema mariae [3]; [7]): 100% | mortality at 75 ppm (Clavinema mariae [3]; [7]): 100% | Antiparasitic effect of Clavinema mariae in vitro compared with the recommended concentration (Clavinema mariae [3]): showed the antiparasitic effect at a very high concentration | Killing Concentration (ppm) (Clavinema mariae [3]): 25-50 ppm

O=C(C1CCCCC1)N1CC(=O)N2CCc3ccccc3C2C1 (stereo not shown) [Praziquantel]
mortality at 800 ppm (Clavinema mariae [3]; [7]): 100% | mortality at 1600 ppm (Clavinema mariae [3]; [7]): 100% | Antiparasitic effect of Clavinema mariae in vitro compared with the recommended concentration (Clavinema mariae [3]): did not show the antiparasitic effect of Clavinema mariae at a concentration 2000 times higher than the recommended concentration | Killing Concentration (ppm) (Clavinema mariae [3]): 400-800 ppm

C1CNCCN1 [Piperazine]
Death of fish (%) (Sebastes schlegeli [1]; oral, 100 ppm, 1 administration, observed for 2 weeks): 0% | Death of fish (%) (Sebastes schlegeli [1]; oral, 300 ppm, 1 administration, observed for 2 weeks): 30% | Killing Effect (%) (Clavinema mariae [2]; oral, 100 ppm, 1 administration, after 2 weeks): 0% | Killing Effect (%) (Clavinema mariae [2]; oral, 300 ppm, 1 administration, after 2 weeks): 0% | mortality at 50 ppm (Clavinema mariae [3]; [7]): 100% | mortality at 75 ppm (Clavinema mariae [3]; [7]): 100% | mortality at 100 ppm (Clavinema mariae [3]; [7]): 100% | Antiparasitic effect of Clavinema mariae in vitro compared with the recommended concentration (Clavinema mariae [3]): at a lower concentration than the recommended concentration | Killing Concentration (ppm) (Clavinema mariae [3]): 33-50 ppm

CC[C@H](C)[C@H]1O[C@]2(C=C[C@@H]1C)C[C@@H]1C[C@@H](C/C=C(\C)[C@@H](O[C@H]3C[C@H](OC)[C@@H](O[C@H]4C[C@H](OC)[C@@H](O)[C@H](C)O4)[C@H](C)O3)[C@@H](C)/C=C/C=C3\CO[C@@H]4[C@H](O)C(C)=C[C@@H](C(=O)O1)[C@]34O)O2 [avermectin]
Time to maximum plasma concentration [5]: 4 h | half-life [5]: about 16 hours

OO [Hydrogen peroxide]
Death of fish (%) (Sebastes schlegeli [1]; medicated bath, 10 ppm, 10 minutes, 1 bath, observed for 2 weeks): 0% | Death of fish (%) (Sebastes schlegeli [1]; [8]): 0% | Antiparasitic effect against Clavinema mariae on Sebastes schlegeli (Clavinema mariae [2]; [9]): could not be confirmed to have the antiparasitic effect | Killing Effect (%) (Clavinema mariae [2]; medicated bath, 10 ppm, 10 minutes, 1 bath, after 2 weeks): 0% | Killing Effect (%) (Clavinema mariae [2]; [10]): 0% | mortality at 5 ppm (Clavinema mariae [3]; [7]): 100% | mortality at 10 ppm (Clavinema mariae [3]; [7]): 100% | mortality at 14 ppm (Clavinema mariae [3]; [7]): 100% | mortality at 280 ppm (Clavinema mariae [3]; [7]): 100% | Antiparasitic effect of Clavinema mariae in vitro compared with the recommended concentration (Clavinema mariae [3]): at a lower concentration than the recommended concentration | Killing Concentration (ppm) (Clavinema mariae [3]): <5 ppm

CN1CCCN=C1/C=C/c1cccs1 [Pyrantel]
Death of fish (%) (Sebastes schlegeli [1]; oral, 2.7 ppm, 1 administration, observed for 2 weeks): 0% | Killing Effect (%) (Clavinema mariae [2]; oral, 2.7 ppm, 1 administration, after 2 weeks): 0% | mortality at 0.06 ppm (Clavinema mariae [3]; [7]): 20% | mortality at 0.09 ppm (Clavinema mariae [3]; [7]): 100% | mortality at 0.9 ppm (Clavinema mariae [3]; [7]): 100% | Antiparasitic effect of Clavinema mariae in vitro compared with the recommended concentration (Clavinema mariae [3]): at a lower concentration than the recommended concentration | Killing Concentration (ppm) (Clavinema mariae [3]): 0.02-0.06 ppm

c1ccc([C@H]2CN3CCSC3=N2)cc1 [Levamisole]
Killing Effect (%) (Clavinema mariae [2]; oral, 2.5 ppm, 1 administration, after 2 weeks): 0% | Killing Effect (%) (Clavinema mariae [2]; [6]): 0% | mortality at 0.5 ppm (Clavinema mariae [3]; [7]): 20% | mortality at 1 ppm (Clavinema mariae [3]; [7]): 100% | mortality at 1.7 ppm (Clavinema mariae [3]; [7]): 100% | Antiparasitic effect of Clavinema mariae in vitro compared with the recommended concentration (Clavinema mariae [3]): at a lower concentration than the recommended concentration

C=O [Formaline, Formalin]
Death of fish (%) (Sebastes schlegeli [1]; [8]): 0% | Death of fish (%) (Sebastes schlegeli [1]; medicated bath, 200 ppm, 10 minutes, 1 bath, observed for 2 weeks): 0% | Antiparasitic effect against Clavinema mariae on Sebastes schlegeli (Clavinema mariae [2]; [9]): could not be confirmed to have the antiparasitic effect | Killing Effect (%) (Clavinema mariae [2]; [10]): 0% | Killing Effect (%) (Clavinema mariae [2]; medicated bath, 200 ppm, 10 minutes, 1 bath, after 2 weeks): 0% | mortality at 25 ppm (Clavinema mariae [3]; [7]): 100% | mortality at 50 ppm (Clavinema mariae [3]; [7]): 100% | mortality at 70 ppm (Clavinema mariae [3]; [7]): 100% | mortality at 350 ppm (Clavinema mariae [3]; [7]): 100% | Antiparasitic effect of Clavinema mariae in vitro compared with the recommended concentration (Clavinema mariae [3]): at a lower concentration than the recommended concentration | Killing Concentration (ppm) (Clavinema mariae [3]): 25 ppm
